Experimental data reported in ChEMBL document CHEMBL1142396, “Structure-activity relationships among the nitrogen containing bisphosphonates in clinical use and other analogues: time-dependent inhibition of human farnesyl pyrophosphate synthase” (J Med Chem, 2008).
Calls of active or inactive are those of the source. The calls are words filed in the database; no cut-off is given here.

Columns and labels:
[1] = molecular target: T1, Farnesyl pyrophosphate synthase (Homo sapiens, UniProt P14324)
T1 sequence (P14324 whole entry): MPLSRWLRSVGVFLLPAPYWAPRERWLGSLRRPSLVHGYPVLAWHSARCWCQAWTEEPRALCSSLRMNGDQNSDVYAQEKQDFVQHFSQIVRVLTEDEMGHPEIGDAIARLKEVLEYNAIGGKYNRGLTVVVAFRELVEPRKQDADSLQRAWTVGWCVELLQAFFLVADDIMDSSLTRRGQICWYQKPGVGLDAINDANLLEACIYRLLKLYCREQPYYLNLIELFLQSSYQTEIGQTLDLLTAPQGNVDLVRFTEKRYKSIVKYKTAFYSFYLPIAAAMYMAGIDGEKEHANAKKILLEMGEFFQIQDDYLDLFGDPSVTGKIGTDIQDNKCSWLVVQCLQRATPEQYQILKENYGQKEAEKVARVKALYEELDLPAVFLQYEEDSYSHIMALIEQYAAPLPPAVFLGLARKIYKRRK

[2] = molecular target: T1, Farnesyl pyrophosphate synthase; remark: listed apart in the source
[3] = species: Rattus norvegicus; assay: Inhibition of bone resorption in rat assessed as phosphate; type: functional

| Structure (SMILES) | IC50 [1] [µM] | Ki [1] [µM] | IC50 [2] [µM] | Ki [2] [µM] | Activity [3] | LED [3] [µg/kg] |
| --- | --- | --- | --- | --- | --- | --- |
| Cc1cccnc1NC(P(C)(=O)O)P(C)(=O)O (stereo not given) | > 10000 | > 4000 | 330 | 93 | inactive | – |
| NCCC(O)(P(=O)(O)O)P(=O)(O)O [PAMIDRONIC ACID] | – | – | – | – | – | 30 |
| Cc1cccnc1NCC(P(=O)(O)O)P(=O)(O)O | 0.989 | 0.155 | 0.734 | 0.196 | – | 1000 |
| O=P(O)(O)C(NC1CCCCC1)P(=O)(O)O [(CYCLOHEXYLAMINO)METHYLENEDIPHOSPHONIC ACID] | – | – | – | – | – | 1 |
| O=P(O)(O)C(Cc1cccnc1)P(=O)(O)O | 0.173 | 0.0348 | 0.0326 | 0.0074 | – | 10 |
| O.O=P(O)(O)C(O)(Cn1ccnc1)P(=O)(O)O [ZOLEDRONIC ACID] | – | – | – | – | – | 0.1 |
| O=P(O)(O)C(CNc1ccccn1)P(=O)(O)O | – | – | – | – | – | 10 |
| O=P(O)(O)C(O)(Cc1ccccc1)P(=O)(O)O | – | – | – | – | – | 100 |
| O=P(O)(O)C(CC1CCCCN1)P(=O)(O)O (stereo not given) | 0.869 | 0.112 | 0.0238 | 0.00328 | – | – |
| O=P(O)(O)OP(=O)(O)O [PYROPHOSPHORIC ACID] | 243 | 40.5 | 181 | 29.8 | – | – |
| NCCCCCC(O)(P(=O)(O)O)P(=O)(O)O [NERIDRONIC ACID] | – | – | – | – | – | 10 |
| Cc1cccnc1NC(P(C)(=O)O)P(=O)(O)O (stereo not given) | 1.89 | 0.32 | 0.0614 | 0.0116 | – | 1000 |
| O=P(O)(O)C(O)(Cc1cccnc1)P(=O)(O)O [RISEDRONIC ACID] | – | – | – | – | – | 0.3 |
| Nc1ccccc1CC(O)(P(=O)(O)O)P(=O)(O)O | 0.371 | 0.0646 | 0.0216 | 0.0034 | – | 1 |
| C[n+]1cccc(CC(O)(P(=O)(O)O)P(=O)(O)O)c1 | 1.71 | 0.177 | 0.0196 | 0.0039 | – | 0.1 |
| CCCCCN(C)CCC(O)(P(=O)(O)O)P(=O)(O)O [IBANDRONIC ACID] | – | – | – | – | – | 0.1 |
| NCCCC(O)(P(=O)(O)O)P(=O)(O)O [ALENDRONIC ACID] | – | – | – | – | – | 1 |
| O=P(O)(O)C(O)(CC1CCCCN1)P(=O)(O)O (stereo not given) | 0.592 | 0.137 | 0.0137 | 0.0016 | – | 1 |
| NCCCCC(O)(P(=O)(O)O)P(=O)(O)O | 1.08 | 0.194 | 0.298 | 0.0482 | – | – |
| O=P(O)(O)C(O)(Cc1ccccn1)P(=O)(O)O | 0.349 | 0.0593 | 0.0092 | 0.00074 | – | 1 |
| O=C(O)C(O)(Cc1cccnc1)P(=O)(O)O (stereo not given) | 467 | 97.5 | – | 61 | – | 300 |
| Cc1cccnc1NC(P(=O)(O)O)P(=O)(O)O | – | – | – | – | – | 1 |
| O=P(O)(O)C(Cc1ccccn1)P(=O)(O)O [PIRIDRONIC ACID] | 0.259 | 0.039 | 0.0304 | 0.00445 | – | 10 |
| CC1CCCN=C1NC(P(=O)(O)O)P(=O)(O)O (stereo not given) | 0.541 | 0.0863 | 0.0103 | 0.001 | – | 0.3 |
| O=P(O)(O)C(Nc1ccccn1)P(=O)(O)O | – | – | – | – | – | 10 |
| O=P(O)(O)CCc1cccnc1 | – | – | 824 | 128 | – | – |
| O=P(O)(O)C(O)(CCc1cccnc1)P(=O)(O)O | – | – | – | – | – | 1000 |
